In brackets after ≈: the same amount, converted by molar mass. Entries after “also recorded” stand apart in the source; their conditions may differ. Like-named read-outs stand apart in the source and are kept apart here. Positions of bridges follow the written chain, without caps; N, C: chain ends. Residues, ends and D or L forms follow the SMILES beside them.
Columns and labels:
E. coli RNA polymerase = E. coli RNA polymerase (Escherichia coli, UniProt P0A8T7+P0A8V2); assay: in vitro abortive transcription initiation assay (RNAP inhibition); format: biochemical
Chain of E. coli RNA polymerase (P0A8T7 whole entry): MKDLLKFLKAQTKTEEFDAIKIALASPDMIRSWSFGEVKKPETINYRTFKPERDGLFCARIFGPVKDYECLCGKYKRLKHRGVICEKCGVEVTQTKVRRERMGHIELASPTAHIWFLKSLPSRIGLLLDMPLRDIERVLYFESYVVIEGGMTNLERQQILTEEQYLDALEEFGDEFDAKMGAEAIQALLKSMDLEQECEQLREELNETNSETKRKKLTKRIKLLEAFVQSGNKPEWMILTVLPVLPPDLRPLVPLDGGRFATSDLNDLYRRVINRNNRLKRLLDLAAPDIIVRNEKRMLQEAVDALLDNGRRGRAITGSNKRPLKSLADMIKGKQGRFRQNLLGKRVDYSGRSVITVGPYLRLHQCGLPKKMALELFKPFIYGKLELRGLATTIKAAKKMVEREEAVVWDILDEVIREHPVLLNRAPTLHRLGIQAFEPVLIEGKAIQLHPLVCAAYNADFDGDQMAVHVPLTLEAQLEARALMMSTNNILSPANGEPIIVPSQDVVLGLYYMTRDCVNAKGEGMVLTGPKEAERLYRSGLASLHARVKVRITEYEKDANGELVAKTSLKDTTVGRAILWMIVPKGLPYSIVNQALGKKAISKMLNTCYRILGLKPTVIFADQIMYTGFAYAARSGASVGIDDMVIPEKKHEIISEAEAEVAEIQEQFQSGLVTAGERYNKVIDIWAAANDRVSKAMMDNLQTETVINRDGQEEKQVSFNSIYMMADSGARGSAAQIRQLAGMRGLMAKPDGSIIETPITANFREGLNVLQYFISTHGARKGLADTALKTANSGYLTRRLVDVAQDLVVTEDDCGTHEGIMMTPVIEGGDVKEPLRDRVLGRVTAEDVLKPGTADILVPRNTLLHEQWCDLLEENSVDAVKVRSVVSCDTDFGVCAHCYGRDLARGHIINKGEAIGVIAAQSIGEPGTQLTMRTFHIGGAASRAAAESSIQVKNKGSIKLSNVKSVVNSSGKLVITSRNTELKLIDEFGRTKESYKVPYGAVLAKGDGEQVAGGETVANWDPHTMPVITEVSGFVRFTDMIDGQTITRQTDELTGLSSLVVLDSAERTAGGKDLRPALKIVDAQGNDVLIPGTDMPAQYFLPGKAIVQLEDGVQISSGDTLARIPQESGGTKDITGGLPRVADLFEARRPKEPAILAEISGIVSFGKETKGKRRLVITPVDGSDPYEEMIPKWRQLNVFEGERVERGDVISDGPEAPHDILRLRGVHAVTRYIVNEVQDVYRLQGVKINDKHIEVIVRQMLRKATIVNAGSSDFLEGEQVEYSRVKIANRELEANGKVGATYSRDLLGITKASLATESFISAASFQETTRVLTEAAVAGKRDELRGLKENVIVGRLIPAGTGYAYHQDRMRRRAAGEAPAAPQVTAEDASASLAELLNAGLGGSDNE
Chain of E. coli RNA polymerase (P0A8V2 whole entry): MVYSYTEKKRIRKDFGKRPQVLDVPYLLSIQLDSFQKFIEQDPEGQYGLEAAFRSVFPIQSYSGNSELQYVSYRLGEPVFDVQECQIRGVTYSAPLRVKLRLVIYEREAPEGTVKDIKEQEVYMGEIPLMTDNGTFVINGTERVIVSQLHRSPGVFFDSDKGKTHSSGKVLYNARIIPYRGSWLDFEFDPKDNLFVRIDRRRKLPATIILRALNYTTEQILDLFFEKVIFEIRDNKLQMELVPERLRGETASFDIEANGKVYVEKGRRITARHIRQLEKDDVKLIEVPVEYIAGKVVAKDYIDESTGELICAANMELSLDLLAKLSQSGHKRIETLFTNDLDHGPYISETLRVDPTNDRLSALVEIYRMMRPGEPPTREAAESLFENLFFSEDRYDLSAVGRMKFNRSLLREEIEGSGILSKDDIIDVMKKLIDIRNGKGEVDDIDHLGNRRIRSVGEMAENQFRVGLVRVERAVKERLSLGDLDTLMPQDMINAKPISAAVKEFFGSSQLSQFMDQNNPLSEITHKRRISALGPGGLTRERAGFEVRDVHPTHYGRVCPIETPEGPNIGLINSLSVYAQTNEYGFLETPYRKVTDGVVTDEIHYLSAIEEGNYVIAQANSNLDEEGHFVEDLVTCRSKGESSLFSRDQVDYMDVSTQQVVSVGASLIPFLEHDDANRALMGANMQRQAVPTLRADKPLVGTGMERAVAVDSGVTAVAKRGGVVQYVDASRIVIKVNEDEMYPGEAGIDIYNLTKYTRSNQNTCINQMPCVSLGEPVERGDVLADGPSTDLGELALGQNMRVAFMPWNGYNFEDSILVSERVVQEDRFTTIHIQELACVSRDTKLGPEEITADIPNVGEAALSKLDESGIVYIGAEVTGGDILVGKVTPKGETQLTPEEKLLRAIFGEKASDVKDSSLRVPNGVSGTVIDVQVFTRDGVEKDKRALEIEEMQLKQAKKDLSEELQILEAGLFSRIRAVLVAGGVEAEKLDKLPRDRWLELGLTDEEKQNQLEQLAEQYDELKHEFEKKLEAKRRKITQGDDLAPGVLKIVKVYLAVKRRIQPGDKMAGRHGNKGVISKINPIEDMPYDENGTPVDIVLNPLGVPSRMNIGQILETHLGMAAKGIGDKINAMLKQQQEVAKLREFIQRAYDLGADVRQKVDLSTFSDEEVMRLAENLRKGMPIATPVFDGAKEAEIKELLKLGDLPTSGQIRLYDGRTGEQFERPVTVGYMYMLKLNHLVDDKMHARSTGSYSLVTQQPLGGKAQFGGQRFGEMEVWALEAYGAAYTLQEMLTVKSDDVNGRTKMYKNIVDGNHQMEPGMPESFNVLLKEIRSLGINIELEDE
Chain of E. coli RNA polymerase (P0A7Z4 whole entry, further chain): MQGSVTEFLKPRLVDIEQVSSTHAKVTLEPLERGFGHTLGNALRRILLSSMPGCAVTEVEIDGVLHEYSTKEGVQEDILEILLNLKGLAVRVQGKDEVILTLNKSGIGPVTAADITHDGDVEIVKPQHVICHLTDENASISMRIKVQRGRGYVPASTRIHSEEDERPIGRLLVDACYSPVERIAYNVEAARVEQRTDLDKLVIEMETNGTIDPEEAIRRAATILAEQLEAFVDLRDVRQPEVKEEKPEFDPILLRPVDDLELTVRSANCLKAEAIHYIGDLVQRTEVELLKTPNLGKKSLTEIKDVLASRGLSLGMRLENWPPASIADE
Chain of E. coli RNA polymerase (P00579 whole entry, further chain): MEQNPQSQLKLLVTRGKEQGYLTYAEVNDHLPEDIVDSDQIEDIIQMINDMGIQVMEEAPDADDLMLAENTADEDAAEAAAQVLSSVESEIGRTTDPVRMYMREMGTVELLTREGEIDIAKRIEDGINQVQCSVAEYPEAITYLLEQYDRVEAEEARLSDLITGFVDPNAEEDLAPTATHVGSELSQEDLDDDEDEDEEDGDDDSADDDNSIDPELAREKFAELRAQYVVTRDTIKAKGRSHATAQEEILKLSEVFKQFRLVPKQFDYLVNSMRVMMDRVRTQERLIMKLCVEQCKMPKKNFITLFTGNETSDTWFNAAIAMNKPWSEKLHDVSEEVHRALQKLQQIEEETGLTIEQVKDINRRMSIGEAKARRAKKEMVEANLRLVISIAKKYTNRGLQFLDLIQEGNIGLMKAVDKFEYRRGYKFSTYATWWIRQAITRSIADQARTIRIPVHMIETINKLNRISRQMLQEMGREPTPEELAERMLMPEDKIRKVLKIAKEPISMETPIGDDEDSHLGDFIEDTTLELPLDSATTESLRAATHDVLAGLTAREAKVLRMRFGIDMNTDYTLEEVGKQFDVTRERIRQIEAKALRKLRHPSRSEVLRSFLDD
Chain of E. coli RNA polymerase (P0A800 whole entry, further chain): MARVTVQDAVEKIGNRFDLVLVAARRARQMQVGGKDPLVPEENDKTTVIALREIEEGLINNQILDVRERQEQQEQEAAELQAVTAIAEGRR

Burkholderia multivorans = format: cell-based
B. pseudomallei = format: cell-based, Burkholderia pseudomallei
[1] = test system: Burkholderia multivorans ATCC 17616
[2] = test system: Burkholderia thailandensis E264
[3] = test system: Burkholderia gladioli ATCC 10248
[4] = test system: Burkholderia pseudomallei Bp82
[5] = test system: Burkholderia pseudomallei 576mn
[6] = test system: Enterohemorrhagic Escherichia coli O157:H7 TUV-93-0
[7] = test system: Salmonella enterica serovar newport
[8] = test system: Pseudomonas aeruginosa PAO1
B. cepacia ATCC 25416 [9] = test system: B. cepacia ATCC 25416
[10] = test system: B. multivorans ATCC 17616
B. mallei Old ISU [11] = test system: B. mallei Old ISU
B. mallei NVSL 86-567-2 [12] = test system: B. mallei NVSL 86-567-2
B. cepacia ATCC 25416 [13] = test system: B. cepacia ATCC 25416; remark: listed apart in the source
[14] = test system: B. multivorans ATCC 17616; remark: listed apart in the source
B. mallei Old ISU [15] = test system: B. mallei Old ISU; remark: listed apart in the source
B. mallei NVSL 86-567-2 [16] = test system: B. mallei NVSL 86-567-2; remark: listed apart in the source
[17] = thermostability analysis via LC-MS; conditions: heated to 95° C.; 2 h for the LC-MS sample
[18] = test system: Enterohemorrhagic Escherichia coli O157:H7 TUV-93-0; conditions: E. coli; cited from earlier work
[19] = test system: Salmonella enterica serovar newport; conditions: cited from earlier work

With `CC[C@H](C)[C@@H]1NC(=O)[C@H](CO)NC(=O)CNC(=O)[C@H](CC(=O)O)NC(=O)CNC(=O)CNC(=O)CC[C@@H](C(=O)N[C@@H](Cc2ccc(O)cc2)C(=O)N[C@@H](Cc2ccccc2)C(=O)N[C@@H](CC(N)=O)C(=O)N[C@@H](CCCNC(=N)N)C(=O)N2CCC[C@H]2C(=O)N[C@@H](CCSC)C(=O)N[C@@H](Cc2c[nH]cn2)C(=O)N[C@H](C(=O)N[C@@H](Cc2c[nH]cn2)C(=O)N[C@@H](CC(=O)O)C(=O)N[C@@H](Cc2c[nH]c3ccccc23)C(=O)N[C@@H](CCC(N)=O)C(=O)N[C@H](C(=O)N[C@@H](CCSC)C(=O)N[C@@H](CC(=O)O)C(=O)N[C@@H](CO)C(=O)NCC(=O)N[C@@H](Cc2ccc(O)cc2)C(=O)N[C@@H](Cc2ccc(O)cc2)C(=O)NCC(=O)O)[C@@H](C)CC)[C@@H](C)CC)NC(=O)[C@H](C)NC1=O` [ubonodin] (GGDGSIAEYFNRPMHIHDWQIMDSGYYG-OH; lactam N-8; C-terminus assumed) the “potency in abortive transcription assays relative to MccJ25” value (E. coli RNA polymerase) was “somewhat lower than that of MccJ25”, the “inhibition of E. coli RNA polymerase (abortive transcription initiation)” value (E. coli RNA polymerase; 0, 1, 10 or 100 μM peptide) was “inhibits transcription initiation; also recorded: able to inhibit E. coli RNAP; also recorded: inhibits E. coli RNA polymerase” and the “activity against B. multivorans after heating” value (Burkholderia multivorans) was “maintains its activity; also recorded: loses activity”. The “antimicrobial activity (in words)” value (B. pseudomallei) was “no activity”, the “MIC in M63 agar” value [1] was 8 µM (≈ 25.6 µg/mL) and the “MIC in M63 agar” value ([1]; ATCC 17616) was 7.8 µM (≈ 25 µg/mL). For the same compound, the “MIC in M63 agar” value [2] was 500 µM (≈ 1600 µg/mL), the “antimicrobial activity (in words)” value [3] was “no activity” and the “MIC in M63 agar” value ([3]; ATCC 10248) was over 500 µM. The “MIC in M63 agar” value [4] was over 500 µM, the “MIC in M63 agar” value [5] was over 500 µM and the “antimicrobial activity (in words)” value [6] was “unable to kill”. The “MIC in M63 agar” value ([6]; O157:H7) was over 500 µM, the “antimicrobial activity (in words)” value [7] was “unable to kill” and the “MIC in M63 agar” value ([7]; serovar newport) was over 500 µM. For the same compound, the “MIC in M63 agar” value [8] was over 500 µM, the “MIC via spot-on-lawn assay” value (B. cepacia ATCC 25416 [9]) was 40 µM (≈ 128 µg/mL) and the “MIC via spot-on-lawn assay” value [10] was 20 µM (≈ 64 µg/mL). The “MIC via spot-on-lawn assay” value (B. mallei Old ISU [11]) was 40 µM (≈ 128 µg/mL), the “MIC via spot-on-lawn assay” value (B. mallei NVSL 86-567-2 [12]) was 40 µM (≈ 128 µg/mL) and the “MIC via liquid growth assay” value (B. cepacia ATCC 25416 [13]) was 4 µM (≈ 12.8 µg/mL). For the same compound, the “MIC via liquid growth assay” value [14] was 31 µM (≈ 99.2 µg/mL), the “MIC via liquid growth assay” value (B. mallei Old ISU [15]) was over 31 µM and the “MIC via liquid growth assay” value (B. mallei NVSL 86-567-2 [16]) was over 31 µM. The “thermal degradation by LC-MS” value [17] was “fragments into a variety of different structures; also recorded: major species in this sample is still intact ubonodin”.

In the case of “H17A (GGDGSIAEYFNRPMHIADWQIMDSGYYG; listed as Burkholderia ubonensis)”, the “antimicrobial activity of purified ubonodin variants relative to wild-type” value [1] is reported as “near wild-type activity”.

In the case of citrocin, the “susceptibility of strain to peptide” value [18] is listed as “susceptible” and the “susceptibility of strain to peptide” value [19] is listed as “susceptible”.

In the case of “microcin J25 (GGAGHVPEYFVGIGTPISFYG) [MccJ25]”, the “susceptibility of strain to peptide” value [18] is given as “susceptible” and the “susceptibility of strain to peptide” value [19] is given as “susceptible”.

Source: patent US20220380415A1, “Antibiotic Peptides, Compositions and Uses Thereof” (priority 2019, published 2022)
